Source: ChEMBL document CHEMBL1201862, “PubChem BioAssay data set” (2004)
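Interpolation was linear, between the two tested concentrations surrounding the appropriate level; five concentrations were tested over 48 hours in 96-well plates. GI50 marks 50% less growth.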 Active and inactive are the calls of the source. No stated cut-off is given here; in the data, active = GI50 up to about 1.1 µM and inactive = higher.

Columns and labels:
Experiment in all cases: NCI anticancer screen, dose series, 48 h
786-0 = system: 786-0
A498 = system: A498
A549 = system: A549
ACHN = system: ACHN
BT-549 = system: BT-549
CAKI-1 = system: CAKI-1
CCRF-CEM = system: CCRF-CEM
COLO 205 = system: COLO 205
DU-145 = system: DU-145
EKVX = system: EKVX
HCT-116 = system: HCT-116
HCT-15 = system: HCT-15
HL-60 = system: HL-60
HOP-62 = system: HOP-62
HOP-92 = system: HOP-92
HT-29 = system: HT-29
Hs-578T = system: Hs-578T
IGROV-1 = system: IGROV-1
K562 = system: K562
KM12 = system: KM12
LOX IMVI = system: LOX IMVI
M14 = system: M14
MDA-MB-231 = system: MDA-MB-231
MDA-MB-435 = system: MDA-MB-435
MDA-N = system: MDA-N
MOLT-4 = system: MOLT-4
Malme-3M = system: Malme-3M
NCI-H226 = system: NCI-H226
NCI-H23 = system: NCI-H23
NCI-H460 = system: NCI-H460
NCI-H522 = system: NCI-H522
NCI/ADR-RES = system: NCI/ADR-RES
OVCAR-3 = system: OVCAR-3
OVCAR-4 = system: OVCAR-4
OVCAR-5 = system: OVCAR-5
OVCAR-8 = system: OVCAR-8
PC-3 = system: PC-3
RPMI-8226 = system: RPMI-8226
RXF 393 = system: RXF 393
SF-268 = system: SF-268
SF-295 = system: SF-295
SF-539 = system: SF-539
SK-MEL-28 = system: SK-MEL-28
SK-MEL-2 = system: SK-MEL-2
SK-MEL-5 = system: SK-MEL-5
SK-OV-3 = system: SK-OV-3
SN12C = system: SN12C
SNB-19 = system: SNB-19
SNB-75 = system: SNB-75
SR = system: SR
SW-620 = system: SW-620
T47D = system: T47D
TK-10 = system: TK-10
U-251 = system: U-251
UACC-257 = system: UACC-257
UO-31 = system: UO-31
HCC 2998 = system: HCC 2998
UACC-62 = system: UACC-62

In the case of `CCCCN(CC)c1nc(C)nc2c1c(C)c(C)n2-c1c(C)cc(C)cc1C` [ANTALARMIN], the GI50 (786-0) is reported as 16.5 µM (inactive), the GI50 (A498) is reported as 16.9 µM (inactive) and the GI50 (A549) is reported as 14.2 µM (inactive). The GI50 (ACHN) was 14.9 µM (inactive), the GI50 (BT-549) was 19.7 µM (inactive) and the GI50 (CAKI-1) was 13.9 µM (inactive). The GI50 (CCRF-CEM) was 11.3 µM (inactive), the GI50 (COLO 205) was 15.6 µM (inactive) and the GI50 (DU-145) was 16.6 µM (inactive). The GI50 (EKVX) was 14.2 µM (inactive), the GI50 (HCT-116) was 10.1 µM (inactive) and the GI50 (HCT-15) was 13.6 µM. The GI50 (HL-60) was 4.1 µM (inactive), the GI50 (HOP-62) was 17.2 µM (inactive) and the GI50 (HOP-92) was 9.35 µM (inactive). The GI50 (HT-29) was 10.5 µM (inactive), the GI50 (Hs-578T) was 16.9 µM (inactive) and the GI50 (IGROV-1) was 14.5 µM (inactive). The GI50 (K562) was 12.5 µM (inactive), the GI50 (KM12) was 17.6 µM (inactive) and the GI50 (LOX IMVI) was 15.6 µM (inactive). For the same compound, the GI50 (M14) was 17.9 µM (inactive), the GI50 (MDA-MB-231) was 14.2 µM (inactive) and the GI50 (MDA-MB-435) was 17.1 µM (inactive). For the same compound, the GI50 (MDA-N) was 20.1 µM (inactive), the GI50 (MOLT-4) was 10.9 µM (inactive) and the GI50 (Malme-3M) was 15.9 µM (inactive). The GI50 (NCI-H226) was 14.8 µM (inactive), the GI50 (NCI-H23) was 14.5 µM (inactive) and the GI50 (NCI-H460) was 13.2 µM (inactive). For the same compound, the GI50 (NCI-H522) was 12.8 µM (inactive), the GI50 (NCI/ADR-RES) was 13.6 µM (inactive) and the GI50 (OVCAR-3) was 13.3 µM (inactive). For the same compound, the GI50 (OVCAR-4) was 16.3 µM (inactive), the GI50 (OVCAR-5) was 15.3 µM (inactive) and the GI50 (OVCAR-8) was 14.2 µM (inactive). The GI50 (PC-3) was 13.5 µM (inactive), the GI50 (RPMI-8226) was 7.87 µM (inactive) and the GI50 (RXF 393) was 6.93 µM (inactive). For the same compound, the GI50 (SF-268) was 17.4 µM (inactive), the GI50 (SF-295) was 14.3 µM (inactive) and the GI50 (SF-539) was 2.69 µM (inactive). For the same compound, the GI50 (SK-MEL-28) was 15.8 µM (inactive), the GI50 (SK-MEL-2) was 12.9 µM (inactive) and the GI50 (SK-MEL-5) was 5.21 µM (inactive). The GI50 (SK-OV-3) was 17.1 µM (inactive), the GI50 (SN12C) was 22 µM (inactive) and the GI50 (SNB-19) was 16.4 µM (inactive). The GI50 (SNB-75) was 14.3 µM (inactive), the GI50 (SR) was 8.45 µM (inactive) and the GI50 (SW-620) was 15.7 µM (inactive). For the same compound, the GI50 (T47D) was 10.7 µM (inactive), the GI50 (TK-10) was 17.4 µM (inactive) and the GI50 (U-251) was 11.7 µM (inactive). For the same compound, the GI50 (UACC-257) was 13.3 µM (inactive) and the GI50 (UO-31) was 14.7 µM (inactive).

For `Cn1c(=O)c2c(nc(Cc3ccccc3)n2CC(=O)O)n(C)c1=O`, the GI50 (786-0) was > 100 µM (inactive), the GI50 (A498) was > 100 µM (inactive) and the GI50 (A549) was > 100 µM (inactive). The GI50 (ACHN) was > 100 µM (inactive), the GI50 (BT-549) was > 100 µM (inactive) and the GI50 (CAKI-1) was > 100 µM (inactive). For the same compound, the GI50 (CCRF-CEM) was > 100 µM (inactive), the GI50 (DU-145) was > 100 µM (inactive) and the GI50 (EKVX) was > 100 µM (inactive). For the same compound, the GI50 (HCC 2998) was > 100 µM (inactive), the GI50 (HCT-116) was > 100 µM (inactive) and the GI50 (HCT-15) was > 100 µM. For the same compound, the GI50 (HOP-62) was > 100 µM (inactive), the GI50 (HOP-92) was > 100 µM (inactive) and the GI50 (HT-29) was > 100 µM (inactive). The GI50 (Hs-578T) was > 100 µM (inactive), the GI50 (IGROV-1) was > 100 µM (inactive) and the GI50 (KM12) was > 100 µM (inactive). For the same compound, the GI50 (LOX IMVI) was > 100 µM (inactive), the GI50 (M14) was > 100 µM (inactive) and the GI50 (MDA-MB-231) was > 100 µM (inactive). For the same compound, the GI50 (MDA-MB-435) was > 100 µM (inactive), the GI50 (MDA-N) was > 100 µM (inactive) and the GI50 (MOLT-4) was > 100 µM (inactive). For the same compound, the GI50 (Malme-3M) was > 100 µM (inactive), the GI50 (NCI-H226) was > 100 µM (inactive) and the GI50 (NCI-H23) was > 100 µM (inactive). The GI50 (NCI-H460) was > 100 µM (inactive), the GI50 (NCI-H522) was > 100 µM (inactive) and the GI50 (NCI/ADR-RES) was > 100 µM (inactive). The GI50 (OVCAR-3) was > 100 µM (inactive), the GI50 (OVCAR-4) was > 100 µM (inactive) and the GI50 (OVCAR-5) was > 100 µM (inactive). The GI50 (OVCAR-8) was > 100 µM (inactive), the GI50 (PC-3) was > 100 µM (inactive) and the GI50 (RXF 393) was > 100 µM (inactive). The GI50 (SF-268) was > 100 µM (inactive), the GI50 (SF-295) was > 100 µM (inactive) and the GI50 (SK-MEL-28) was > 100 µM (inactive). For the same compound, the GI50 (SK-MEL-2) was > 100 µM (inactive), the GI50 (SK-MEL-5) was > 100 µM (inactive) and the GI50 (SN12C) was > 100 µM (inactive). For the same compound, the GI50 (SNB-19) was > 100 µM (inactive), the GI50 (SNB-75) was > 100 µM (inactive) and the GI50 (SW-620) was > 100 µM (inactive). The GI50 (T47D) was > 100 µM (inactive), the GI50 (TK-10) was > 100 µM (inactive) and the GI50 (U-251) was > 100 µM (inactive). The GI50 (UACC-257) was > 100 µM (inactive), the GI50 (UACC-62) was > 100 µM (inactive) and the GI50 (UO-31) was > 100 µM (inactive).
